Where a SMILES comes first, the peptide text is derived from it. Bridges are numbered along the chain shown (N, C = ends). The star is where a group is joined. ξ: configuration not given here. Pentadecanoyl(3ξ-OH,15-Gua) = N=C(N)NCCCCCCCCCCCCC(O)CC(=O)*
Experiments:
[1] = system: cucumber bacterial blight bacterium; conditions: patent document 3; cited from earlier work
[2] = system: parsley cultured cells; test: Activity of inducing disease resistance: elicitor responsiveness of parsley cultured cells, phytoalexin detection by fluorescence; assay type: cell-based; conditions: for Elicitor responsiveness of parsley cultured cells (in words): each compound alone; for Relative fluorescence: 0.5 μM
Protocol: The activity of inducing disease resistance in plant of compound 1 and compound 2 according to the present invention was also evaluated according to the method of Siegrist, J. et al. The results are shown in Table 9.
(§1) The activity of inducing disease resistance in plant of each of compound 1 and compound 2 was evaluated in the same manner as in Evaluation Example 1 by adopting the method practiced in Evaluation Example 1, i.e., the method in which the elicitor responsiveness of parsley cultured cells was measured by the detection of phytoalexin using fluorescence.
as §1, with “inducing” for “inducing disease”, “resistance to” for “resistance in”, “plant diseases” for “plant”, “compound 3” for “compound 1”, “compound 4” for “compound 2”

[3] = system: Fusarium wilt of cucumber fungus; conditions: patent document 3; cited from earlier work
[4] = system: Gram-negative bacteria; conditions: patent document 3, non-patent documents 4 and 5; cited from earlier work
[5] = system: parsley cultured cells; test: Activity of inducing disease resistance: elicitor responsiveness of parsley cultured cells, phytoalexin detection by fluorescence; assay type: cell-based; conditions: Evaluation Example 1; tested as 3:2 mixture
[6] = system: cucumber bacterial blight bacterium (Pseudomonas syringae pv. lachrymans); test: Evaluation Example 2: paper disc test for direct antimicrobial activity against cucumber bacterial blight bacterium; assay type: cell-based; conditions: tested as 3:2 mixture, 60 + 40 ppm
Protocol: That is, cucumber bacterial blight bacterium was mixed with a potato semisynthetic medium (a decoction consisting of 300 g of potato and 1 L of distilled water, calcium nitrate tetrahydrate 0.5 g, disodium hydrogenphosphate dodecahydrate 2 g, peptone 5 g, sucrose 20 g, powdered agar 15 g) maintained at 45° C., in a proportion of 1×10^8 CFU/mL, and the resulting mixture was dispensed in 20 mL aliquots into sterilized Petri dishes. After the solidification of the medium, 50 μL of a solution obtained by dissolving a 3:2 mixture of compounds 1 and 2 in dimethyl sulfoxide to a concentration of 100 μg/mL was infiltrated into a paper disc with a diameter of 8 mm, and then the paper disc was allowed to stand on the medium. After 48 hours of cultivation at 25° C. in the dark, the activity was evaluated on the basis of the presence of an inhibition zone around the periphery

[7] = Solubility in solvents; assay type: physicochemical
[8] = Evaluation Example 6, elicitor treatment No
[9] = Evaluation Example 6, elicitor treatment Yes
[10] = Evaluation Example 7, elicitor No
[11] = Evaluation Example 7, elicitor Yes
[12] = in ethyl acetate, chloroform and hexane
[13] = in methanol, butanol, isopropyl alcohol and dimethyl sulfoxide

| Compound | Antimicrobial activity against cucumber bacterial blight bacterium [1] | Elicitor responsiveness of parsley cultured cells (in words) ([2]; Evaluation Example 6) | Relative fluorescence [2, 8] | Relative fluorescence [2, 9] | Antimicrobial activity against Fusarium wilt of cucumber fungus [3] | Antimicrobial activity against Gram-negative bacteria [4] | Elicitor responsiveness of parsley cultured cells (in words) [5] | Direct antimicrobial activity against cucumber bacterial blight bacterium (in words) [6] | Elicitor responsiveness of parsley cultured cells (in words) ([2]; Evaluation Example 7) | Relative fluorescence [2, 10] | Relative fluorescence [2, 11] | Solubility [7, 12] | Solubility [7, 13] |
| --- | --- | --- | --- | --- | --- | --- | --- | --- | --- | --- | --- | --- | --- |
| CC1NC(=O)C(CC(N)=O)NC(=O)C(C(C)O)NC(=O)C(C(C)C)NC(=O)C(C(C)C)NC(=O)C(NC(=O)CC(O)CCCCCCCCCCCCNC(=N)N)C(C)OC1=O (stereo not drawn) [Compound 1, Fusaricidin A] ({Pentadecanoyl(3ξ-OH,15-Gua)}-TVVTNA; ester 1-C; configuration not given here) | inactive | improves the elicitor responsiveness | 98.5 | 1000 | no antimicrobial activity | inactive | improve the elicitor responsiveness | do not exhibit direct antimicrobial activity | – | – | – | – | – |
| CC(N)C(=O)OC(C)C1NC(=O)C(C(C)C)NC(=O)C(C(C)C)NC(=O)C(NC(=O)CC(O)CCCCCCCCCCCCNC(=N)N)C(C)OC(=O)C(C)NC(=O)C(CCC(N)=O)NC1=O (stereo not drawn) [Compound 4] ({Pentadecanoyl(3ξ-OH,15-Gua)}-TVVT(Ala)QA; ester 1-C; configuration not given here) | – | – | – | – | – | – | – | – | improve the elicitor responsiveness | 0.7 | 504.8 | insoluble | readily soluble |
| CC1NC(=O)C(CCC(N)=O)NC(=O)C(C(C)O)NC(=O)C(C(C)C)NC(=O)C(C(C)C)NC(=O)C(NC(=O)CC(O)CCCCCCCCCCCCNC(=N)N)C(C)OC1=O (stereo not drawn) [Compound 2, Fusaricidin B] ({Pentadecanoyl(3ξ-OH,15-Gua)}-TVVTQA; ester 1-C; configuration not given here) | – | improves the elicitor responsiveness | 100.7 | 1000 | – | inactive | improve the elicitor responsiveness | do not exhibit direct antimicrobial activity | – | – | – | – | – |
| CC(N)C(=O)OC(C)C1NC(=O)C(C(C)C)NC(=O)C(C(C)C)NC(=O)C(NC(=O)CC(O)CCCCCCCCCCCCNC(=N)N)C(C)OC(=O)C(C)NC(=O)C(CC(N)=O)NC1=O (stereo not drawn) [Compound 3] ({Pentadecanoyl(3ξ-OH,15-Gua)}-TVVT(Ala)NA; ester 1-C; configuration not given here) | – | – | – | – | – | – | – | – | improve the elicitor responsiveness | 3.1 | 222.7 | insoluble | readily soluble |

Reference: patent US7935335B2, “Strains belonging to the genus Paenibacillus and method of controlling plant disease by using these strains or culture thereof” (Kaken Pharmaceutical Co., Ltd., priority 2004, dated 2011)
